What was measured:
lettuce (Lactuca sativa) = details: Non Patent Literatures 7 to 10; cited from earlier work
soybean (Glycine max) [1] = assay: Effect of saponin formulation and iron phosphate in combination on soybean yield (Example 10); type: in vivo; details: 50 mg saponin formulation and/or 0.75 mg iron(III) phosphate tetrahydrate per pot, irrigation, 86 days
Procedure: “Ryokuheki” (Kaneko Seeds Co., Ltd.) was used as soybean seeds. Each Wagner pot of 1/5,000 a was filled with approximately 4 L of culture soil (Takii water-containing cell culture soil, intermedium-acting fertilizer effect type:expanded vermiculite=1:1 (volume ratio)), and three seeds were sown at a depth of approximately 1 cm from the culture soil surface. 50 mg of a saponin formulation (“soybean saponin 80”; AccessOne Co., Ltd.), 0.75 mg of iron(III) phosphate tetrahydrate (Junsei Chemical Co., Ltd.), and a mixture thereof were each suspended in 100 mL of tap water, and the culture soil surface was irrigated with each suspension (“saponin plot”, “iron phosphate plot” and “combination plot”, respectively; both the concentrations of the saponin formulation of the combination plot and the saponin plot in the culture soil were approximately 12.5 ppm and corresponded to approximately 6.1 ppm in terms of the concentration of group B soyasaponin calculated from quantification results (Table 7) in Production Example 1). […] 86 days after the sowing, pods (the pods include grains; the same holds true for the description below) were harvested, and a pod fresh weight per plant (pot) and a pod fresh weight per pod (average weight per pod) were measured (n=7 only for the combination plot, and n=8 for the other plots). […]

soybean (Glycine max) [2] = assay: Effect of soyasaponin Bb on soybean growth, in combination with root nodule bacterium material (Example 2); type: in vivo; details: for foliar age among the three plots / plant height among the three plots / above-ground part fresh weight vs only the root nodule bacterium material / root nodule weight vs only the root nodule bacterium material / number of lateral buds / increase in the number of root nodules vs only the root nodule bacterium material: 1 mL of 20 μM solution, 24 days; for above-ground part fresh weight vs only the root nodule bacterium material: no significant change; for root nodule weight vs only the root nodule bacterium material: no significant difference; for number of lateral buds: rarely seen in non-application plot; for increase in the number of root nodules vs only the root nodule bacterium material: significant only for genistein
Procedure: Each Leonard jar filled with culture soil (Takii water-containing cell culture soil TM-1, Takii & Co., Ltd.) was irrigated with 100 mL of tap water. Then, a root nodule bacterium material (“Dr Mametaro®” (Idemitsu Kosan Co., Ltd.) was distributed at a thickness on the order of 5 mm onto the culture soil in the jar using a spatula. Two seeds of soybean (cultivar “Ryokuheki”, Kaneko Seeds Co., Ltd.) were sown by burying at a depth of approximately 1 cm from the culture soil surface. 1 mL of a solution of 20 μM soyasaponin Bb (soyasaponin I, ChromaDex, Inc.) dissolved in 50 mM TAPS buffer (pH 7.7) was added dropwise onto the culture soil covering the seeds using a micropipette. The soyasaponin Bb concentration in the culture soil was approximately 0.3 ppm. Only 1 mL of 50 mM TAPS buffer as a negative control and 1 mL of 20 μM genistein (Gen) solution as a positive control of root nodule formation promotion were applied in the same way as above (for the root nodule formation-promoting effect of genistein, see: Plant and Soil, 1997, 192: 141-151; and Secretions and Exudates in Biological Systems 27-48, Signaling and Communication in Plants 12, Springer-Verlag Berlin Heidelberg, 2012).
Plant cultivation was performed under the same conditions as in Example 1. 24 days after the sowing, growth indexes (foliar age, plant height, the number of lateral buds, above-ground part fresh weight, underground part fresh weight, the number of root nodules, and root nodule fresh weight) were measured. Each growth index was obtained as to each test plot by determining a mean of two plant individuals in each jar, and subsequently calculating a mean of four jars (n=4). The Tukey-Kramer method was used to test the significant difference among the plots.

soybean (Glycine max) [3] = assay: Effect of soyasaponin Bb on soybean growth in culture soil (Example 1); type: in vivo; details: approx. 0.3 ppm in culture soil, 24 days after sowing
Procedure: Each Leonard jar (Soil Science and Plant Nutrition, 1983, 29: 97-100) filled with approximately 65 g of culture soil (Takii water-containing cell culture soil TM-1, Takii & Co., Ltd.) was irrigated with 100 mL of tap water. Then, two seeds of soybean (cultivar “Ryokuheki”, Kaneko Seeds Co., Ltd.) were sown by burying at a depth of approximately 1 cm from the culture soil surface. 1 mL of a solution of 20 μM soyasaponin Bb (soyasaponin I, ChromaDex, Inc.) dissolved in 50 mM TAPS buffer (pH 7.7) was added dropwise onto the culture soil covering the seeds using a micropipette. The soyasaponin Bb concentration in the culture soil was approximately 0.3 ppm (ppm by mass; the same holds true for the description below). 50 mM TAPS buffer (pH 7.7) was applied as a control (soyasaponin Bb non-application plot) in the same way as above.
Plant cultivation was performed in a plant growth chamber (LPH-350SP, Nippon Medical & Chemical Instruments Co., Ltd.). The light conditions were set to 16-hour light (light intensity: 130 μmol/m^2/s)/8-hour dark. The temperature was set to 26° C. for light and 20° C. for dark, and the humidity was set to 50%. Water supply was performed appropriately (approximately once per 7 to 10 days) by the addition of tap water in an appropriate amount to the lower part of the jar. 24 days after the sowing, growth indexes (foliar age, plant height, the number of lateral buds, above-ground part fresh weight, and underground part fresh weight) were measured. Each growth index was obtained as to each of the soyasaponin Bb non-application plot (control) and the soyasaponin Bb application plot by determining a mean of two plant individuals in each jar, and subsequently calculating a mean of four jars (n=4). The Student's t test was used to test the significant difference between the soyasaponin Bb application plot and the non-application plot.

SMILES | lettuce radicle elongation (lettuce (Lactuca sativa)) | increase in pod fresh weight per pod with respect to the non-application plot (soybean (Glycine max) [1]; significant (5% or less)) | increase in pod fresh weight per plant with respect to the non-application plot (soybean (Glycine max) [1]; significant only for combination) | foliar age among the three plots (soybean (Glycine max) [2]) | plant height among the three plots (soybean (Glycine max) [2]) | above-ground part fresh weight vs only the root nodule bacterium material (soybean (Glycine max) [2]) | root nodule weight vs only the root nodule bacterium material (soybean (Glycine max) [2]) | number of lateral buds (soybean (Glycine max) [2]) | increase in the number of root nodules vs only the root nodule bacterium material (soybean (Glycine max) [2]) | increase in underground part fresh weight with respect to only the root nodule bacterium material (soybean (Glycine max) [2]; 1 mL of 20 μM solution (approx. 0.3 ppm in culture soil), 24 days after sowing, statistically significant) | foliar age vs non-application plot (soybean (Glycine max) [3]) | plant height vs non-application plot (soybean (Glycine max) [3]) | increase in the number of lateral buds with respect to the non-application plot (soybean (Glycine max) [3]; statistically significant) | increase in underground part fresh weight with respect to the non-application plot (soybean (Glycine max) [3]; statistically significant) | increase in above-ground part fresh weight with respect to the non-application plot (soybean (Glycine max) [3]; tendency, no significant difference)
CC1=C(O)C(=O)C[C@H](O[C@@H]2CC(C)(C)C[C@H]3C4=CC[C@@H]5[C@@]6(C)CC[C@H](O[C@@H]7O[C@H](C(=O)O)[C@@H](O)[C@H](O)[C@H]7O[C@@H]7O[C@H](CO)[C@H](O)[C@H](O)[C@H]7O[C@@H]7O[C@@H](C)[C@H](O)[C@@H](O)[C@H]7O)[C@](C)(CO)[C@@H]6CC[C@@]5(C)[C@]4(C)CC[C@@]23C)O1 [soyasaponin βg, reference compound] | promoted | – | – | – | – | – | – | – | – | – | – | – | – | – | –
O.O.O.O.O=P([O-])([O-])[O-].[Fe+3] [iron phosphate, iron(III) phosphate tetrahydrate] | – | approximately 10% | approximately 10% | – | – | – | – | – | – | – | – | – | – | – | –
O=c1c(-c2ccc(O)cc2)coc2cc(O)cc(O)c12 [genistein, reference compound] | – | – | – | did not differ significantly | did not differ significantly | tendency toward increase | tendency toward increase | on average one per individual | approximately 1.7 times | – | – | – | – | – | –
C[C@@H]1O[C@@H](O[C@H]2[C@H](O[C@H]3[C@H](O[C@H]4CC[C@@]5(C)[C@@H](CC[C@]6(C)[C@@H]5CC=C5[C@@H]7CC(C)(C)C[C@@H](O)[C@]7(C)CC[C@]56C)[C@@]4(C)CO)O[C@H](C(=O)O)[C@@H](O)[C@@H]3O)O[C@H](CO)[C@H](O)[C@@H]2O)[C@H](O)[C@H](O)[C@H]1O [soyasaponin Bb] | relatively weak or was not seen | – | – | did not differ significantly | did not differ significantly | tendency toward increase | tendency toward increase | on average one per individual | approximately 1.3 times | approximately 1.5 times | did not differ significantly | did not differ significantly | approximately 2.7 times | approximately 2.2 times | approximately 1.1 times

Source: patent US20200045983A1, “PROMOTER FOR LEGUMINOUS PLANT GROWTH” (KAO CORPORATION, priority 2017, published 2020)
